Holding throughout (assay): relative viability (nuclei count vs DMSO), 5 days (fraction); higher = more cells survive
Compound in the assay “Elesclomol + Pemetrexed”: CN(NC(=O)CC(=O)NN(C)C(=S)c1ccccc1)C(=S)c1ccccc1 [Elesclomol] + Nc1nc2[nH]cc(CCc3ccc(C(=O)N[C@@H](CCC(=O)O)C(=O)O)cc3)c2c(=O)[nH]1 [Pemetrexed] (partner 0.2 µM)
In a few lines: (§1)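 Medians of duplicate plates are given as relative viability. That measure is the nuclei count in treated wells divided by the count in vehicle wells. Counts were taken on 4× images of lung cancer cell lines in 1536-well plates, 5 days after pin-tool dosing the day after seeding with one drug alone or a fixed anchor-drug dose plus five library-drug doses (not always all listed) in √10 steps.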

Compound in the assay “Elesclomol + Tozasertib”: CN(NC(=O)CC(=O)NN(C)C(=S)c1ccccc1)C(=S)c1ccccc1 [Elesclomol] + Cc1cc(Nc2cc(N3CCN(C)CC3)nc(Sc3ccc(NC(=O)C4CC4)cc3)n2)n[nH]1 [Tozasertib] (partner 0.1 µM)
In a few lines:
as §1

Compound in the assay “Elesclomol + OSI-027”: CN(NC(=O)CC(=O)NN(C)C(=S)c1ccccc1)C(=S)c1ccccc1 [Elesclomol] + COc1cccc2cc(-c3nc([C@H]4CC[C@H](C(=O)O)CC4)n4ncnc(N)c34)[nH]c12 [OSI-027] (partner 0.5 µM)
The method in brief: as §1

Compound in the assay “Elesclomol + Bortezomib”: CN(NC(=O)CC(=O)NN(C)C(=S)c1ccccc1)C(=S)c1ccccc1 [Elesclomol] + CC(C)C[C@H](NC(=O)[C@H](Cc1ccccc1)NC(=O)c1cnccn1)B(O)O [Bortezomib] (partner 0.002 µM)
The method in brief: as §1

Compound in the assay “Elesclomol + Palbociclib”: CN(NC(=O)CC(=O)NN(C)C(=S)c1ccccc1)C(=S)c1ccccc1 [Elesclomol] + CC(=O)c1c(C)c2cnc(Nc3ccc(N4CCNCC4)cn3)nc2n(C2CCCC2)c1=O [Palbociclib] (partner 0.5 µM)
In a few lines:
as §1

Drawing on the supplement of paper PMC10307832, this text covers relative viability for seven cell lines.

In the case of LCLC-103H, the relative viability in the assay with Elesclomol + Pemetrexed (first compound 0.003162 µM) came out at 0.476; with Elesclomol + Pemetrexed (first compound 0.01 µM), 0.483; with Elesclomol + Pemetrexed (first compound 0.03162 µM) it was 0.467; with Elesclomol + Pemetrexed (first compound 0.1 µM), 0.431; with Elesclomol + Tozasertib (first compound 0.003162 µM) it was 0.477; with Elesclomol + Tozasertib (first compound 0.01 µM) it was 0.377. Besides, the relative viability with Elesclomol + Tozasertib (first compound 0.03162 µM) stood at 0.426; in the assay with Elesclomol + Tozasertib (first compound 0.1 µM) it was 0.202; with Elesclomol + OSI-027 (first compound 0.003162 µM) it was 0.461; with Elesclomol + OSI-027 (first compound 0.01 µM), 0.409; with Elesclomol + OSI-027 (first compound 0.03162 µM) it was 0.463; with Elesclomol + OSI-027 (first compound 0.1 µM), 0.237. Also, the relative viability was determined as 1.12 in the assay with Elesclomol + Bortezomib (first compound 0.003162 µM); 0.865 with Elesclomol + Bortezomib (first compound 0.01 µM); 1.07 with Elesclomol + Bortezomib (first compound 0.03162 µM); 0.838 with Elesclomol + Bortezomib (first compound 0.1 µM); 0.482 with Elesclomol + Palbociclib (first compound 0.003162 µM); 0.481 in the assay with Elesclomol + Palbociclib (first compound 0.01 µM). The relative viability with Elesclomol + Palbociclib (first compound 0.03162 µM) turned out to be 0.471; in the assay with Elesclomol + Palbociclib (first compound 0.1 µM), 0.517.
NCI-H1734: the relative viability with Elesclomol + Pemetrexed (first compound 0.003162 µM) was found to be 0.436; in the assay with Elesclomol + Pemetrexed (first compound 0.01 µM), 0.507; with Elesclomol + Pemetrexed (first compound 0.03162 µM), 0.234; with Elesclomol + Pemetrexed (first compound 0.1 µM), 0.11; in the assay with Elesclomol + Tozasertib (first compound 0.003162 µM) it was 0.276; with Elesclomol + Tozasertib (first compound 0.01 µM), 0.24. The relative viability with Elesclomol + Tozasertib (first compound 0.03162 µM) amounted to 0.126; with Elesclomol + Tozasertib (first compound 0.1 µM), 0.0951; with Elesclomol + OSI-027 (first compound 0.003162 µM), 0.573; in the assay with Elesclomol + OSI-027 (first compound 0.01 µM), 0.491; in the assay with Elesclomol + OSI-027 (first compound 0.03162 µM), 0.178; with Elesclomol + OSI-027 (first compound 0.1 µM), 0.124. The relative viability with Elesclomol + Bortezomib (first compound 0.003162 µM) was 0.957; in the assay with Elesclomol + Bortezomib (first compound 0.01 µM), 0.738; with Elesclomol + Bortezomib (first compound 0.03162 µM), 0.405; in the assay with Elesclomol + Bortezomib (first compound 0.1 µM), 0.12; with Elesclomol + Palbociclib (first compound 0.003162 µM), 0.334; with Elesclomol + Palbociclib (first compound 0.01 µM) it was 0.326. In addition, the relative viability was found to be 0.132 with Elesclomol + Palbociclib (first compound 0.03162 µM) and 0.105 with Elesclomol + Palbociclib (first compound 0.1 µM).
EKVX: the relative viability stood at 0.366 in the assay with Elesclomol + Pemetrexed (first compound 0.003162 µM); 0.33 with Elesclomol + Pemetrexed (first compound 0.01 µM); 0.151 with Elesclomol + Pemetrexed (first compound 0.03162 µM); 0.131 with Elesclomol + Pemetrexed (first compound 0.1 µM); 0.343 in the assay with Elesclomol + Tozasertib (first compound 0.003162 µM); 0.281 in the assay with Elesclomol + Tozasertib (first compound 0.01 µM). Further, the relative viability came to 0.199 with Elesclomol + Tozasertib (first compound 0.03162 µM); 0.141 with Elesclomol + Tozasertib (first compound 0.1 µM); 0.767 in the assay with Elesclomol + OSI-027 (first compound 0.003162 µM); 0.457 in the assay with Elesclomol + OSI-027 (first compound 0.01 µM); 0.329 in the assay with Elesclomol + OSI-027 (first compound 0.03162 µM); 0.185 in the assay with Elesclomol + OSI-027 (first compound 0.1 µM). In addition, the relative viability was 0.997 in the assay with Elesclomol + Bortezomib (first compound 0.003162 µM); 0.633 with Elesclomol + Bortezomib (first compound 0.01 µM); 0.312 with Elesclomol + Bortezomib (first compound 0.03162 µM); 0.208 with Elesclomol + Bortezomib (first compound 0.1 µM); 0.334 in the assay with Elesclomol + Palbociclib (first compound 0.003162 µM); 0.155 with Elesclomol + Palbociclib (first compound 0.01 µM). Besides, the figures for the relative viability with Elesclomol + Palbociclib (first compound 0.03162 µM) and with Elesclomol + Palbociclib (first compound 0.1 µM) were 0.143 and 0.105, respectively.
For HARA, the relative viability worked out at 0.211 with Elesclomol + Pemetrexed (first compound 0.003162 µM); 0.293 in the assay with Elesclomol + Pemetrexed (first compound 0.01 µM); 0.183 with Elesclomol + Pemetrexed (first compound 0.03162 µM); 0.141 in the assay with Elesclomol + Pemetrexed (first compound 0.1 µM); 0.155 with Elesclomol + Tozasertib (first compound 0.003162 µM); 0.108 in the assay with Elesclomol + Tozasertib (first compound 0.01 µM). Also, the relative viability with Elesclomol + Tozasertib (first compound 0.03162 µM) came to 0.0878; with Elesclomol + Tozasertib (first compound 0.1 µM) it was 0.0669; with Elesclomol + OSI-027 (first compound 0.003162 µM), 0.524; with Elesclomol + OSI-027 (first compound 0.01 µM), 0.211; in the assay with Elesclomol + OSI-027 (first compound 0.03162 µM), 0.31; with Elesclomol + OSI-027 (first compound 0.1 µM) it was 0.0896. The relative viability is 1.1 with Elesclomol + Bortezomib (first compound 0.003162 µM); 1.1 in the assay with Elesclomol + Bortezomib (first compound 0.01 µM); 1.01 in the assay with Elesclomol + Bortezomib (first compound 0.03162 µM); 0.332 with Elesclomol + Bortezomib (first compound 0.1 µM); 0.239 with Elesclomol + Palbociclib (first compound 0.003162 µM); 0.278 with Elesclomol + Palbociclib (first compound 0.01 µM). Moreover, the relative viability was 0.284 with Elesclomol + Palbociclib (first compound 0.03162 µM) and 0.233 with Elesclomol + Palbociclib (first compound 0.1 µM).
For the cell line EMC-BAC-2, the relative viability with Elesclomol + Pemetrexed (first compound 0.003162 µM) is 0.486; in the assay with Elesclomol + Pemetrexed (first compound 0.01 µM) it was 0.399; with Elesclomol + Pemetrexed (first compound 0.03162 µM) it was 0.525; with Elesclomol + Pemetrexed (first compound 0.1 µM) it was 0.426; with Elesclomol + Tozasertib (first compound 0.003162 µM) it was 0.307; in the assay with Elesclomol + Tozasertib (first compound 0.01 µM) it was 0.265. In addition, the relative viability was determined as 0.275 with Elesclomol + Tozasertib (first compound 0.03162 µM); 0.213 with Elesclomol + Tozasertib (first compound 0.1 µM); 0.408 with Elesclomol + OSI-027 (first compound 0.003162 µM); 0.225 with Elesclomol + OSI-027 (first compound 0.01 µM); 0.352 with Elesclomol + OSI-027 (first compound 0.03162 µM); 0.176 with Elesclomol + OSI-027 (first compound 0.1 µM). For the same cell line, the relative viability with Elesclomol + Bortezomib (first compound 0.003162 µM) came out at 1.08; with Elesclomol + Bortezomib (first compound 0.01 µM) it was 0.948; in the assay with Elesclomol + Bortezomib (first compound 0.03162 µM) it was 0.866; in the assay with Elesclomol + Bortezomib (first compound 0.1 µM), 0.637; in the assay with Elesclomol + Palbociclib (first compound 0.003162 µM), 0.514; with Elesclomol + Palbociclib (first compound 0.01 µM) it was 0.369. The relative viability in the assay with Elesclomol + Palbociclib (first compound 0.03162 µM) amounted to 0.455; with Elesclomol + Palbociclib (first compound 0.1 µM) it was 0.352.
Regarding PC-14, the relative viability with Elesclomol + Pemetrexed (first compound 0.003162 µM) was found to be 0.14; in the assay with Elesclomol + Pemetrexed (first compound 0.01 µM), 0.0457; in the assay with Elesclomol + Pemetrexed (first compound 0.03162 µM) it was 0.0214; with Elesclomol + Pemetrexed (first compound 0.1 µM), 0.0198; with Elesclomol + Tozasertib (first compound 0.003162 µM), 0.502; with Elesclomol + Tozasertib (first compound 0.01 µM), 0.0652. The relative viability with Elesclomol + Tozasertib (first compound 0.03162 µM) was determined as 0.0256; with Elesclomol + Tozasertib (first compound 0.1 µM) it was 0.0175; in the assay with Elesclomol + OSI-027 (first compound 0.003162 µM), 0.19; with Elesclomol + OSI-027 (first compound 0.01 µM) it was 0.0399; in the assay with Elesclomol + OSI-027 (first compound 0.03162 µM) it was 0.0104; with Elesclomol + OSI-027 (first compound 0.1 µM) it was 0.0138. Moreover, the relative viability with Elesclomol + Bortezomib (first compound 0.003162 µM) is 0.862; in the assay with Elesclomol + Bortezomib (first compound 0.01 µM), 0.244; in the assay with Elesclomol + Bortezomib (first compound 0.03162 µM) it was 0.0404; with Elesclomol + Bortezomib (first compound 0.1 µM), 0.0297; with Elesclomol + Palbociclib (first compound 0.003162 µM) it was 0.317; with Elesclomol + Palbociclib (first compound 0.01 µM), 0.0274. Also, the results for the relative viability in the assay with Elesclomol + Palbociclib (first compound 0.03162 µM) and with Elesclomol + Palbociclib (first compound 0.1 µM) were 0.02 and 0.0209, respectively.
On to NCI-H520, for which the relative viability was determined as 0.724 with Elesclomol + Pemetrexed (first compound 0.003162 µM); 0.779 in the assay with Elesclomol + Pemetrexed (first compound 0.01 µM); 0.335 with Elesclomol + Pemetrexed (first compound 0.03162 µM); 0.109 with Elesclomol + Pemetrexed (first compound 0.1 µM); 0.442 in the assay with Elesclomol + Tozasertib (first compound 0.003162 µM); 0.355 in the assay with Elesclomol + Tozasertib (first compound 0.01 µM). In addition, the relative viability with Elesclomol + Tozasertib (first compound 0.03162 µM) turned out to be 0.223; in the assay with Elesclomol + Tozasertib (first compound 0.1 µM) it was 0.181; with Elesclomol + OSI-027 (first compound 0.003162 µM), 0.23; with Elesclomol + OSI-027 (first compound 0.01 µM), 0.293; with Elesclomol + OSI-027 (first compound 0.03162 µM) it was 0.224; in the assay with Elesclomol + OSI-027 (first compound 0.1 µM) it was 0.14. Further, the relative viability came to 0.481 in the assay with Elesclomol + Bortezomib (first compound 0.003162 µM); 0.248 in the assay with Elesclomol + Bortezomib (first compound 0.01 µM); 0.2 with Elesclomol + Bortezomib (first compound 0.03162 µM); 0.0916 with Elesclomol + Bortezomib (first compound 0.1 µM); 0.254 in the assay with Elesclomol + Palbociclib (first compound 0.003162 µM); 0.213 in the assay with Elesclomol + Palbociclib (first compound 0.01 µM). The figures for the relative viability in the assay with Elesclomol + Palbociclib (first compound 0.03162 µM) and in the assay with Elesclomol + Palbociclib (first compound 0.1 µM) were 0.183 and 0.0937, respectively.
